The source made the active and inactive calls. Cut-off read from the data, not from the text of the source, for most assays here: actives have a measured Kd and inactives only a lower limit.

The text below walks through data of ChEMBL document CHEMBL3991601, “The target landscape of clinical kinase drugs” (Science, 2017).

Test [1] deals with Cyclin-dependent kinase 13 (Homo sapiens, UniProt Q14004).
Test [2] addresses Eukaryotic translation initiation factor 2-alpha kinase 1 (Homo sapiens, UniProt Q9BQI3).
The target of a further test is T1, Ephrin type-B receptor 2 (Homo sapiens, UniProt P29323).
T1 sequence (P29323 whole entry): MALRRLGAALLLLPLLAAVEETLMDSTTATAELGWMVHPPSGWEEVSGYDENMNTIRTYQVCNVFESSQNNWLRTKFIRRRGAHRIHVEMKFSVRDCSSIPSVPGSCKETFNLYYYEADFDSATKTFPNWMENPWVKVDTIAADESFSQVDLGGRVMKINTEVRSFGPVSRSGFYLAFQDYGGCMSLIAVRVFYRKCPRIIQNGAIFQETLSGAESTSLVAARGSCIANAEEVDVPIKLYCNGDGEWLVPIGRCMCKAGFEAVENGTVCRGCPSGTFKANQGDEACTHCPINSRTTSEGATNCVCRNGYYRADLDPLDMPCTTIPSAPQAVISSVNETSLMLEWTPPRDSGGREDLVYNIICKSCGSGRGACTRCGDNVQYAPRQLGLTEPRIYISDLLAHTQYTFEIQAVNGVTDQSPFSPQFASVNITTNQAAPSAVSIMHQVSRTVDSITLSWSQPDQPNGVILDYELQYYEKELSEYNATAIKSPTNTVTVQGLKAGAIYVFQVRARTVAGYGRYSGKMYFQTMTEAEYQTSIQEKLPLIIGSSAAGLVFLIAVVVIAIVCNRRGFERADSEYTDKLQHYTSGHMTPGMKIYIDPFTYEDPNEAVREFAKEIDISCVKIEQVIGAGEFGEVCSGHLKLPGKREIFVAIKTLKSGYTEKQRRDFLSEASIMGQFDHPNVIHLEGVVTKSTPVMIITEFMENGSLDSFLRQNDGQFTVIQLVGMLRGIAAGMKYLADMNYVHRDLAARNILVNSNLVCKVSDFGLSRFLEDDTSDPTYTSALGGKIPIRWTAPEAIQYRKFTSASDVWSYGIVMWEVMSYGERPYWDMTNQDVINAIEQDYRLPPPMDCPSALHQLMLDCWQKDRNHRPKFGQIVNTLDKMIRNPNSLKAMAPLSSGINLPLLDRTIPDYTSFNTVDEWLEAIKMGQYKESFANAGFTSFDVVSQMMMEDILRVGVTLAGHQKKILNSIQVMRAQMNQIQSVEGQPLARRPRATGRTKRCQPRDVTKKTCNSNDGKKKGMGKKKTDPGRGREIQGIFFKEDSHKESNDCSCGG

The target in test [3] is T2, Ribosyldihydronicotinamide dehydrogenase [quinone] (Homo sapiens, UniProt P16083).
T2 sequence (P16083 whole entry): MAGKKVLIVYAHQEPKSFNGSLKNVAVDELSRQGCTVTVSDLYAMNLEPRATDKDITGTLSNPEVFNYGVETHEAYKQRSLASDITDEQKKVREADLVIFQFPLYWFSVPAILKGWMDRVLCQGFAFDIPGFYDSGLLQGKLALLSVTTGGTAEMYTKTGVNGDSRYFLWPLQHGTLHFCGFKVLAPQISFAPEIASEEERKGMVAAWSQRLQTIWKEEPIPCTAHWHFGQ

In test [4] the target is T3, Bifunctional phosphoribosylaminoimidazole carboxylase/phosphoribosylaminoimidazole succinocarboxamide synthetase (Homo sapiens, UniProt P22234).
T3 sequence (P22234 whole entry): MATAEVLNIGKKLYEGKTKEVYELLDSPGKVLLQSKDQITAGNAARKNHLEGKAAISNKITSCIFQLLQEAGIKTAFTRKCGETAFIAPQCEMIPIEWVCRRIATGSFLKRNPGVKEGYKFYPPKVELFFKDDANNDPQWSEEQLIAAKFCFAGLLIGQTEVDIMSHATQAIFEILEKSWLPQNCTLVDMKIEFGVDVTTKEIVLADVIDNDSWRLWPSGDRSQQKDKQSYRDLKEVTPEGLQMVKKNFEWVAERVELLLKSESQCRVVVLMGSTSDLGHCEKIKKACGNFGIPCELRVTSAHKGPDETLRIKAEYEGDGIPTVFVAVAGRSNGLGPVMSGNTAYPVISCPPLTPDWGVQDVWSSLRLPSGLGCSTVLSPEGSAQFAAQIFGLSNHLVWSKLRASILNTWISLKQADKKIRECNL

Test [5] has as its target T4, Serine/threonine-protein kinase D3 (Homo sapiens, UniProt O94806).
T4 sequence (O94806 whole entry): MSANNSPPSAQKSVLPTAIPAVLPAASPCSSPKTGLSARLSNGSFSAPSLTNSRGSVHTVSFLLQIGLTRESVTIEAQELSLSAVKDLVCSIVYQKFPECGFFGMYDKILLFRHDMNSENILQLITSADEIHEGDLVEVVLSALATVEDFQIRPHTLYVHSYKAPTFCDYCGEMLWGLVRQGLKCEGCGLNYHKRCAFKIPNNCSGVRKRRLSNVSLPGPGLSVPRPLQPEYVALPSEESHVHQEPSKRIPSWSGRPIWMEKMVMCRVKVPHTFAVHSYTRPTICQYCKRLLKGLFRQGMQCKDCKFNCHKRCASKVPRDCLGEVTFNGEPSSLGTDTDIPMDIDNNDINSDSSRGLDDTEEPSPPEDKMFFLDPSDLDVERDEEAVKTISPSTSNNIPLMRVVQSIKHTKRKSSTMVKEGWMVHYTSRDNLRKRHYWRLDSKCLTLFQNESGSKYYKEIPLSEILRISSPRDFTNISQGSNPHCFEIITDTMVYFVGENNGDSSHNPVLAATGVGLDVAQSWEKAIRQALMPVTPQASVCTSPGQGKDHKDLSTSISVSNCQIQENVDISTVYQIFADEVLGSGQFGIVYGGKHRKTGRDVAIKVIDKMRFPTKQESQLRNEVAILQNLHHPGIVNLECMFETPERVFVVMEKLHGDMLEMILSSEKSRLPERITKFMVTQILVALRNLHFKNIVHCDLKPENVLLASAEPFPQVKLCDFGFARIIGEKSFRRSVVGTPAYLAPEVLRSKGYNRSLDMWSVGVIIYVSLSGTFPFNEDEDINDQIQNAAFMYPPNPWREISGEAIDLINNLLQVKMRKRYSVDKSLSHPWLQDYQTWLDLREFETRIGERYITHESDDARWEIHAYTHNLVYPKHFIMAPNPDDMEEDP

For test [6], the target named is 26S proteasome regulatory subunit 6B (Homo sapiens, UniProt P43686).
Chain of 26S proteasome regulatory subunit 6B (P43686 whole entry): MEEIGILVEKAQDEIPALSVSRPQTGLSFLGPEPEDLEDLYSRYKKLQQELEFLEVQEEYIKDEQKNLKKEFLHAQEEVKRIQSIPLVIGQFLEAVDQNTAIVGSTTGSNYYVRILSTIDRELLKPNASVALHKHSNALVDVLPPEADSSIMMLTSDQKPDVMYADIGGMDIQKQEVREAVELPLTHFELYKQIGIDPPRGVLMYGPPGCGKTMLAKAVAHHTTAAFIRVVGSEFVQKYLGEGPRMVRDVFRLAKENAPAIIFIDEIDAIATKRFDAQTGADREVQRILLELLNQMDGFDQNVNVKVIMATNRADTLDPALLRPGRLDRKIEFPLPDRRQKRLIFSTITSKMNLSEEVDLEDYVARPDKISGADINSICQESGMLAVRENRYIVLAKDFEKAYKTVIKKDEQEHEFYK
For test [7], the target named is Tyrosine-protein kinase SYK (Homo sapiens, UniProt P43405).
Note: in the data inactive means no Kd found up to 30 µM.

Chain of Cyclin-dependent kinase 13 (Q14004 whole entry): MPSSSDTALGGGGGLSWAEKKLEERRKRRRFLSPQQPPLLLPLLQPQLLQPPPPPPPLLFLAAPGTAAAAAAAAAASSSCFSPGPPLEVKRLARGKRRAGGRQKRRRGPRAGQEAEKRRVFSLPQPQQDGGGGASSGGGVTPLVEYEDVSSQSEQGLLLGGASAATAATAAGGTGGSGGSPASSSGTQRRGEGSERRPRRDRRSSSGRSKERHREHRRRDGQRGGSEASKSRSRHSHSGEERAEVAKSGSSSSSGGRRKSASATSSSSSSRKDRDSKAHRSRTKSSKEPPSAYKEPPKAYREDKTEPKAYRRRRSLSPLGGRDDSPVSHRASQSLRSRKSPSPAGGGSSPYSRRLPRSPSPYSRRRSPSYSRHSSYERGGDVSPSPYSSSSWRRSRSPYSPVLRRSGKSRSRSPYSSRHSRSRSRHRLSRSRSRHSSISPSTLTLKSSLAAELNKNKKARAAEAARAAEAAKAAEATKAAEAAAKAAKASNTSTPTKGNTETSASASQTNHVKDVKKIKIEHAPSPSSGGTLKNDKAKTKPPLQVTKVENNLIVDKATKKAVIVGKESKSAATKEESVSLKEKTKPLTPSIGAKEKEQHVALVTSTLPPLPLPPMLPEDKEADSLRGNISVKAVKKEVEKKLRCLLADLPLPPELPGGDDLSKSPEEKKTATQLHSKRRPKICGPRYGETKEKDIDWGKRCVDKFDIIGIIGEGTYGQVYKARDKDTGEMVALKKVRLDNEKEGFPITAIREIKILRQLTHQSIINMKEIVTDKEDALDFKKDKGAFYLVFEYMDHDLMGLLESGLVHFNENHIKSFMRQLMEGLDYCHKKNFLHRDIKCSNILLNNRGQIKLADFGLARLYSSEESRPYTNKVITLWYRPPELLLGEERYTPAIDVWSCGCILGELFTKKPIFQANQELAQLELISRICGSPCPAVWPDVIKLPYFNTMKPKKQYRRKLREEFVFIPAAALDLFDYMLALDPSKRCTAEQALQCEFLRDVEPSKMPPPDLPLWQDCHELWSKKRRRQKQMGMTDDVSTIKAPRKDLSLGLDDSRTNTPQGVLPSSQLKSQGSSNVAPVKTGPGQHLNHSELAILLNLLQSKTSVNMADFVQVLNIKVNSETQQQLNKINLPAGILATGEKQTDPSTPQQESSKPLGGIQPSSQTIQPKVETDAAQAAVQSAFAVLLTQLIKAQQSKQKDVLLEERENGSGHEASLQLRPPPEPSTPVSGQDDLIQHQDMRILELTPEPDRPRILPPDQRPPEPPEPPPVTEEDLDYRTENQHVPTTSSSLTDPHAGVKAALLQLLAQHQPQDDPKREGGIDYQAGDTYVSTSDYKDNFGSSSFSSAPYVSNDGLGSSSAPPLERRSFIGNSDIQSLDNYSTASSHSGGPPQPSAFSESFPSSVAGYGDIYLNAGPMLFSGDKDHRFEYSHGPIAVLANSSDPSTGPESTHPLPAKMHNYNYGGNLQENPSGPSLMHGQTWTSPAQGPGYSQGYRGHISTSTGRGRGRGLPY
Chain of Eukaryotic translation initiation factor 2-alpha kinase 1 (Q9BQI3 whole entry): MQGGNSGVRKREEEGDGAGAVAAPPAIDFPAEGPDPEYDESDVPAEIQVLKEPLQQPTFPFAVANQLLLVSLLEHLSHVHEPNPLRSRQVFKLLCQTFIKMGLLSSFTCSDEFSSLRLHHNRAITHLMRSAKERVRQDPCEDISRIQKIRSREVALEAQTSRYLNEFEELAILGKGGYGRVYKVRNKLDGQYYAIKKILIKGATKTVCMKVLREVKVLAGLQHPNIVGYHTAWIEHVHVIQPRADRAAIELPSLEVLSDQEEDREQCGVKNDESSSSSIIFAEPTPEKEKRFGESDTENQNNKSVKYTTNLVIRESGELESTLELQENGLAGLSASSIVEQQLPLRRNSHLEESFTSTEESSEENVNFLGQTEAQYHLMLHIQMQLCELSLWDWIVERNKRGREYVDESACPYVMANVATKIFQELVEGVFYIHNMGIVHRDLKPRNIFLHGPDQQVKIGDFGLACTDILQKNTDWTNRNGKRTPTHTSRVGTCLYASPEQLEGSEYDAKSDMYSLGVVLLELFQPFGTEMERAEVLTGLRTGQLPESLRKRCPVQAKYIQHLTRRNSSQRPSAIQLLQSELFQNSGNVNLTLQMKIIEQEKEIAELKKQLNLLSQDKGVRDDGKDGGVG

A word on the Kd: it is a measure of binding affinity in units of concentration. In the case of `COc1ccc(-c2ccc3ncc4c(c3c2)n(-c2ccc(N3CCNCC3)c(C(F)(F)F)c2)c(=O)n4C)cn1` [BGT-226 FREE BASE], the Kd (in test [1]; in test [2]; on Ephrin type-B receptor 2; in test [3]; in test [4]; in test [5]) was > 30 µM (inactive) in each case. In addition, the Kd in test [6] and in test [7] was > 30 µM (inactive) throughout.

On to `CNC(=O)c1ccc(Nc2ncc(C(F)(F)F)c(NCc3nccnc3N(C)S(C)(=O)=O)n2)cc1` [DEFACTINIB], for which the dissociation constant Kd was 3.11 µM (active) in test [1]; > 30 µM (inactive) in test [2]; > 30 µM (inactive) at Ephrin type-B receptor 2; > 30 µM (inactive) in test [3]; > 30 µM (inactive) in test [4]; > 30 µM (inactive) in test [5]. In addition, the Kd in test [6] and in test [7] was > 30 µM (inactive) throughout.

Take `Cc1c(Cn2c(C)nc3c(C(=O)O)cc(N4CCOCC4)cc32)cccc1C(F)(F)F` [GSK-2636771]: the Kd (in test [1]; in test [2]; on Ephrin type-B receptor 2; in test [3]; in test [4]; in test [5]) was > 30 µM (inactive) each time. The Kd in test [6] and in test [7] was > 30 µM (inactive) each time.

With `Cc1cc(C(=O)Nc2cc(Oc3ccc4nc(NC(=O)C5CC5)cn4n3)ccc2C)n(C)n1` [TAK-593], the Kd (in test [1]; in test [2]; at Ephrin type-B receptor 2; in test [3]; in test [4]; in test [5]) was > 30 µM (inactive) each time. Further, the Kd in test [6] and in test [7] was > 30 µM (inactive) throughout.

Consider `Cn1cc(-c2[nH]c3cc(NC(=O)[C@H](N)C4CCCCC4)cc4c3c2C=NNC4=O)cn1`, for which the Kd (in test [1]; in test [2]; at Ephrin type-B receptor 2; in test [3]; in test [4]; in test [5]) was > 30 µM (inactive) in each case. Moreover, the Kd in test [6] and in test [7] was > 30 µM (inactive) throughout.

Consider `C[C@@H]1COC(Nc2ccc3ncnc(Nc4ccc(OCc5nccs5)c(Cl)c4)c3c2)=N1` [VARLITINIB], for which the Kd (in test [1]; in test [2]; on Ephrin type-B receptor 2; in test [3]; in test [4]; in test [5]) was > 30 µM (inactive) each time. Besides, the Kd in test [6] and in test [7] was > 30 µM (inactive) in each case.

Consider `CCc1cc2c(cc1N1CCC(N3CCOCC3)CC1)C(C)(C)c1[nH]c3cc(C#N)ccc3c1C2=O` [ALECTINIB], for which the Kd (in test [1]; in test [2]; at Ephrin type-B receptor 2; in test [3]; in test [4]; in test [5]) was > 30 µM (inactive) in each case. For the same compound, the Kd in test [6] and in test [7] was > 30 µM (inactive) in each case.

`C#Cc1cccc(Nc2ncnc3cc4c(cc23)OCCOCCOCCO4)c1` [ICOTINIB]: the Kd (in test [1]; in test [2]; at Ephrin type-B receptor 2; in test [3]; in test [4]; in test [5]) was > 30 µM (inactive) in each case. Further, the Kd in test [6] and in test [7] was > 30 µM (inactive) each time.

For the compound `Cn1c(=O)c(F)c(Nc2ccc(I)cc2F)c2c(=O)n(C[C@@H](O)CO)cnc21` [TAK-733], the Kd (in test [1]; in test [2]; on Ephrin type-B receptor 2; in test [3]; in test [4]; in test [5]) was > 30 µM (inactive) throughout. Moreover, the Kd in test [6] and in test [7] was > 30 µM (inactive) each time.

With `COc1cc2ncnc3c2cc1OCCCCCN(C)Cc1ccc(Br)cc1N3` [JNJ-26483327], the Kd (in test [1]; in test [2]; at Ephrin type-B receptor 2; in test [3]; in test [4]; in test [5]) was > 30 µM (inactive) each time. Further, the Kd in test [6] and in test [7] was > 30 µM (inactive) in each case.

As to `CCOc1ccn(-c2ccc(F)cc2)c(=O)c1C(=O)Nc1ccc(Oc2ccnc(N)c2Cl)c(F)c1` [BMS-777607], the Kd (in test [1]; in test [2]; at Ephrin type-B receptor 2; in test [3]; in test [4]; in test [5]) was > 30 µM (inactive) in each case. Also, the Kd in test [6] and in test [7] was > 30 µM (inactive) throughout.

`FC(F)(F)c1ccc(CNc2ccc(Cc3c[nH]c4ncc(Cl)cc34)cn2)cn1` [PEXIDARTINIB]: the Kd (in test [1]; in test [2]; at Ephrin type-B receptor 2; in test [3]; in test [4]; in test [5]) was > 30 µM (inactive) in each case. The Kd in test [6] and in test [7] was > 30 µM (inactive) each time.
